The text below walks through data of patent publication EP1627887A2, “Mouce trace amine associated receptors” (F.HOFFMANN-LA ROCHE AG, priority 2004, dated 2006).

Read-outs that look alike come from different tables or passages of the source.

Assay [1] deals with Mouse TAAR 1. The assay can be described thus: cAMP Biotrak EIA functional assay in HEK293 cells stably expressing the receptor.
Protocol: (§1) The amount of cAMP produced by HEK293 cells stably expressing the indicated receptor in response to stimulation by each of the listed compounds was measured using the cAMP Biotrak EIA System (Amersham). Shown are the EC50 values in µM (means of at least three independent experiments; EC50 values are calculated from experiments carried out with 12 concentrations each in duplicates evenly distributed in the range of 30 µM - 0.1 nM). The maximal response is represented as percentage of the maximal cAMP levels induced by p-TYR.
(§2) cAMP assay: cAMP was assayed using the cAMP Biotrak Enzymeimmunoassay (EIA) System from Amersham as described in the product manual, following the so-called Non-acetylation EIA procdure.
(§3) In the protocol the following minor modifications were introduced: After stimulation of HEK cells in 96 well plates the reaction was stopped by applying equal volume of pre cooled (-20°C) ethanol. Lysis of cells was not achieved by applying the lysis buffer supplied with the kit, but with transferring the 96 well plates to -80°C for a minimum of 6 hrs (up to several days). Thereafter the contents of the 96 well plates was dried at 50°C over night, and the material remaining in the 96 well plates was resuspended in 200 µl of the assay buffer (the buffer used for resuspending all reagents of the kit). The resuspension were assayed in serial dilutions in assay buffer.
The test system of assay [2] is Mouse TAAR 1.
Protocol: as §1, §2, §3

Turning to `NCCc1c[nH]c2ccccc12` [TRY, tryptamine], the Max in the assay on Mouse TAAR 1 [1] (hek293 cells) turned out to be 100%.

On to `CNCCc1ccccc1` [N-methyl-β-PEA], for which the Max with Mouse TAAR 1 [1] (hek293 cells) was determined as 100%.

Molecule `NCCc1ccc(O)cc1` [p-TYR, p-tyramine] yielded a Max in the assay on Mouse TAAR 1 [1] (maximal response as percentage of the maximal cAMP levels induced by p-TYR, HEK293 cells stably expressing mTAAR1) of 100%. The EC50 with Mouse TAAR 1 [2] is 1370 ± 330 nM.

In turn, `NCCc1ccccc1` [β-PEA, β-phenylethylamine] registered a Max with Mouse TAAR 1 [1] (hek293 cells) of 100%.

In the assay with Mouse TAAR 1 [1], `CNCCc1ccc(O)cc1` [N-methyl-p-tyramine] showed an EC50 of 1020 ± 390 nM. For the same molecule, the Max in the assay on Mouse TAAR 1 [1] (hek293 cells) was found to be 100%.
